Where two headings read alike, the source gives them in different places.
Key:
HeLa = experiment: Proliferation assay (HeLa cell line); conditions: Homo sapiens, 96 h, read-out: Biological Assay 2: Proliferation assay (HeLa cell line) median IC50;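 further: crystal violet staining of cell number, scaled between a plate stained before dosing (0%) and cells left untreated (100%), compounds tested at 0.001-10 µM, IC50 via 4-parameter fit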
[1] = target: T1, catalytic domain of human Bub1 (amino acids 704-1085) (Homo sapiens, UniProt O43683); experiment: Bub1 kinase assay (TR-FRET); type: biochemical
T1 construct: catalytic domain of human Bub1 (amino acids 704-1085); His6 (N); made in house; host or cells: Hi5 insect cells
T1 sequence (O43683 704-1085): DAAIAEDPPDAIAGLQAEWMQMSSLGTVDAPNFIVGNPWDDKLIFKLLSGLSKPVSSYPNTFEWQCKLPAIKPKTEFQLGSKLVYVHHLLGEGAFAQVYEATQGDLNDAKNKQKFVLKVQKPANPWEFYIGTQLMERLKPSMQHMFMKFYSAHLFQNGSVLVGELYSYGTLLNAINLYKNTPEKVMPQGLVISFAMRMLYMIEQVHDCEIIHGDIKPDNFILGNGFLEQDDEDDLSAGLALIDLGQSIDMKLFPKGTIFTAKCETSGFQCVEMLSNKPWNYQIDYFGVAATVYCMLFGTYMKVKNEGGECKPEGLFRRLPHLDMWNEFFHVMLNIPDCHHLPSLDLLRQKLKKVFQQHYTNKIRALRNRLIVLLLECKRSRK
Method in brief: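 Compounds from 2 mM DMSO stocks, serially diluted 1:3.4, incubated with enzyme at 22° C for 60 min. Stopped with EDTA, then 1 h with streptavidin-XL665, anti-phosphoserine antibody and Eu-labelled anti-mouse IgG. Phosphorylated biotin-peptide read by TR-FRET; IC50 by 4-parameter logistic fit.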

[2] = tested on: HeLa human cervical tumor cells; experiment: Proliferation assay (HeLa+Paclitaxel); conditions: read-out: Biological Assay 3: HeLa + Paclitaxel IC50, 3 nM paclitaxel, crystal violet;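 further: compounds at 0.001-10 µM added 4 h after paclitaxel, 92 h exposure, absorbance normalized to zero-point plate (0%) and untreated cells (100%), IC50 from 4-parameter fit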
[3] = Biological Assay 1: Bub1 kinase assay median IC50, 10 μM ATP
[4] = 10 μM ATP, read-out: Biological Assay 1: Bub1 kinase assay median IC50

Row | SMILES | IC50 (HeLa) [nM] | IC50 [1, 3] [nM] | IC50 [2] [nM] | IC50 [1, 4] [nM]
1 | CCOc1cc(F)c(Cn2nc(-c3nc(Nc4ccncn4)cc(C4CCCO4)n3)c3ccccc32)c(F)c1 (racemic) [Example 2-12-86, 2-[1-(4-ethoxy-2,6-difluorobenzyl)-1H-indazol-3-yl]-N-(pyrimidin-4-yl)-6-[(2rac)-tetrahydrofuran-2-yl]pyrimidin-4-amine] | 3900 | 7.5 | 1400 | –
2 | CCOc1cc(F)c(Cn2nc(-c3nc(Nc4ccnc(C)n4)cc(C4CCCO4)n3)c3ccccc32)c(F)c1 (racemic) [Example 2-12-87, 2-[1-(4-ethoxy-2,6-difluorobenzyl)-1H-indazol-3-yl]-N-(2-methylpyrimidin-4-yl)-6-[(2rac)-tetrahydrofuran-2-yl]pyrimidin-4-amine] | 9300 | 37 | 1500 | –
3 | CC1(C)CCc2c(nc(-c3nn(Cc4c(F)cc(OCCO)cc4F)c4ccccc34)nc2Nc2ccncc2Cl)C1 [Example 2-6-25, 2-{4-[(3-{4-[(3-chloropyridin-4-yl)amino]-7,7-dimethyl-5,6,7,8-tetrahydroquin-azolin-2-yl}-1H-indazol-1-yl)methyl]-3,5-difluorophenoxy} ethanol] | 7600 | 48 | 370 | –
4 | Cc1cc(Nc2ccnc(C)n2)nc(-c2nn(Cc3c(F)cc(OCCO)cc3F)c3ccccc23)n1 [Example 2-6-27, 2-{3,5-difluoro-4-[(3-{4-methyl-6-[(2-methylpyrimidin-4-yl)amino]pyrimidin-2-yl}-1H-indazol-1-yl)methyl]phenoxy}ethanol] | 5100 | 43 | 290 | –
5 | COc1cnccc1Nc1nc(-c2nn(Cc3c(F)cc(OCCO)cc3F)c3ccccc23)nc(C)c1C [Example 2-6-31, 2-{3,5-difluoro-4-[(3-{4-[(3-methoxypyridin-4-yl)amino]-5,6-dimethylpyrimidin-2-yl}-1H-indazol-1-yl)methyl]phenoxy}ethanol] | 4900 | – | 760 | 6.7
6 | COc1cnccc1Nc1cc(C)nc(-c2nn(Cc3c(F)cc(OCCO)cc3F)c3ccccc23)n1 [Example 2-6-33, 2-{3,5-difluoro-4-[(3-{4-[(3-methoxypyridin-4-yl)amino]-6-methylpyrimidin-2-yl}-1H-indazol-1-yl)methyl]phenoxy}ethanol] | 3500 | – | 1800 | 5.7
7 | Cc1nccc(Nc2nc(-c3nn(Cc4c(F)cc(OCCO)cc4F)c4ccccc34)nc3c2CN(CC(F)(F)F)C3)n1 [Example 2-6-39, 2-{3,5-difluoro-4-[(3-{4-[(2-methylpyrimidin-4-yl)amino]-6-(2,2,2-trifluoroethyl)-6,7-dihydro-5H-pyrrolo[3,4-d]pyrimidin-2-yl}-1H-indazol-1-yl)methyl]phenoxy}ethanol] | 7000 | 55 | 1500 | –
8 | CCOc1cc(F)c(Cn2nc(-c3ncc(C4CN(CC(F)(F)F)C4)c(Nc4ccncc4)n3)c3ccccc32)c(F)c1 [Example 2-11-2, 2-[1-(4-ethoxy-2,6-difluorobenzyl)-1H-indazol-3-yl]-N-(pyridin-4-yl)-5-[1-(2,2,2-trifluoroeth-yl)azetidin-3-yl]pyrimidin-4-amine] | 3400 | 20 | 120 | –
9 | CCOc1cc(F)c(Cn2nc(-c3nc4c(c(Nc5cc(OC)ncn5)n3)CCC4)c3ccccc32)c(F)c1 [Example 2-12-26, 2-[1-(4-ethoxy-2,6-difluorobenzyl)-1H-indazol-3-yl]-N-(6-methoxypyrimidin-4-yl)-6,7-dihydro-5H-cyclopenta[d]pyrimidin-4-amine] | 8000 | 130 | 1000 | –
10 | CCOc1cc(F)c(Cn2nc(-c3nc4c(c(Nc5ccnc(NC(=O)C6CC6)c5)n3)CCC4)c3ccccc32)c(F)c1 [Example 2-12-28, N-[4-({2-[1-(4-ethoxy-2,6-difluorobenzyl)-1H-indazol-3-yl]-6,7-dihydro-5H-cyclopenta[d]pyrimidin-4-yl}amino)pyridin-2-yl]cyclopropanecarbox-amide] | 5300 | 9.4 | 290 | –
11 | COCCOc1cc(F)c(Cn2nc(-c3nc4c(c(Nc5ccncc5Cl)n3)CCC4)c3ccccc32)c(F)c1 [Example 2-12-30, N-(3-chloropyridin-4-yl)-2-{1-[2,6-difluoro-4-(2-methoxyethoxy)benzyl]-1H-indazol-3-yl}-6,7-dihydro-5H-cyclopenta[d]pyrimidin-4-amine] | 8600 | 60 | 140 | –
12 | COCCOc1cc(F)c(Cn2nc(-c3nc4c(c(Nc5ccncc5OC)n3)CCC4)c3ccccc32)c(F)c1 [Example 2-12-31, 2-{1-[2,6-difluoro-4-(2-methoxyethoxy)benzyl]-1H-indazol-3-yl}-N-(3-methoxypyridin-4-yl)-6,7-dihydro-5H-cyclopenta[d]pyrimidin-4-amine] | 3900 | 13 | 80 | –
13 | CCOc1cc(F)c(Cn2nc(-c3nc4c(c(Nc5cc(Cl)ncn5)n3)CCC4)c3ccccc32)c(F)c1 [Example 2-12-32, N-(6-chloropyrimidin-4-yl)-2-[1-(4-ethoxy-2,6-difluorobenzyl)-1H-indazol-3-yl]-6,7-dihydro-5H-cyclopenta[d]pyrimidin-4-amine] | > 10000 | 330 | 530 | –
14 | CCOc1cc(F)c(Cn2nc(-c3nc4c(c(Nc5ccnc(S(C)(=O)=O)c5)n3)CCC4)c3ccccc32)c(F)c1 [Example 2-19-6, 2-[1-(4-ethoxy-2,6-difluorobenzyl)-1H-indazol-3-yl]-N-[2-(methylsulfonyl)pyridin-4-yl]-6,7-dihydro-5H-cyclopenta[d]pyrimidin-4-amine] | > 10000 | – | 480 | –
15 | COCCOc1cc(F)c(Cn2nc(-c3nc4c(c(Nc5ccncn5)n3)CN(CC(F)(F)F)C4)c3ccccc32)c(F)c1 [Example 2-20-18, 2-{1-[2,6-difluoro-4-(2-methoxyethoxy)benzyl]-1H-indazol-3-yl}-N-(pyrimidin-4-yl)-6-(2,2,2-trifluoroethyl)-6,7-dihydro-5H-pyrrolo[3,4-d]pyrimidin-4-amine] | – | 28 | – | –
16 | CCOc1cc(F)c(Cn2nc(-c3ncc(OCC[S+](C)[O-])c(Nc4ccncc4)n3)c3ccccc32)c(F)c1 (stereo not shown) [Example 3-2-1, 2-[1-(4-ethoxy-2,6-difluorobenzyl)-1H-indazol-3-yl]-5-[2-(methylsulfinyl)ethoxy]-N-(pyridin-4-yl)pyrimidin-4-amine, reference compound] | 4500 | – | 410 | –
17 | CCOc1cc(F)c(Cn2nc(-c3ncc(OCCN)c(Nc4ccncc4)n3)c3ccccc32)c(F)c1 [Example 3-4-1, 5-(2-aminoethoxy)-2-[1-(4-ethoxy-2,6-difluorobenzyl)-1H-indazol-3-yl]-N-(pyridin-4-yl)pyrimidin-4-amine, reference compound] | 1400 | – | – | 3.4

Continued by falling IC50 (HeLa), values first:

Row | IC50 (HeLa) [nM] | IC50 [1, 3] [nM] | IC50 [2] [nM] | IC50 [1, 4] [nM] | SMILES
18 | 3400 | – | 1100 | 5.1 | COc1cnccc1Nc1nc(-c2nn(Cc3c(F)cc(OCCO)cc3F)c3ccccc23)ncc1C [Example 2-6-34, 2-{3,5-difluoro-4-[(3-{4-[(3-methoxypyridin-4-yl)amino]-5-methylpyrimidin-2-yl}-1H-indazol-1-yl)methyl]phenoxy}ethanol]
19 | 3400 | – | 630 | 9.6 | COc1cnccc1Nc1nc(-c2nn(Cc3c(F)cc(OCCO)cc3F)c3ccccc23)ncc1C1CC1 [Example 2-6-36, 2-{4-[(3-{5-cyclopropyl-4-[(3-methoxypyridin-4-yl)amino]pyrimidin-2-yl}-1H-indazol-1-yl)methyl]-3,5-difluorophenoxy} ethanol]
20 | 3100 | 610 | 210 | – | CCOc1cc(F)c(Cn2nc(-c3nc4c(c(Nc5cc(C)nc(C)n5)n3)CCC4)c3ccccc32)c(F)c1 [Example 2-12-27, N-(2,6-dimethylpyrimidin-4-yl)-2-[1-(4-ethoxy-2,6-difluorobenzyl)-1H-indazol-3-yl]-6,7-dihydro-5H-cyclopenta[d]pyrimidin-4-amine]
21 | 2300 | – | 1300 | 5.4 | Cc1cc(Nc2ccncc2OC(F)(F)F)nc(-c2nn(Cc3c(F)cc(OCCO)cc3F)c3ccccc23)n1 [Example 2-6-35, 2-(3,5-difluoro-4-{[3-(4-methyl-6-{[3-(trifluoromethoxy)pyridin-4-yl]amino}pyrimidin-2-yl)-1H-indazol-1-yl]methyl}phenoxy)ethanol]
22 | 1800 | 5 | 370 | – | Cc1cnccc1Nc1nc(-c2nn(Cc3c(F)cc(OCCO)cc3F)c3ccccc23)nc2c1CCC2 [Example 2-4-8, 2-{3,5-difluoro-4-[(3-{4-[(3-methylpyridin-4-yl)amino]-6,7-dihydro-5H-cyclopenta[d]pyrimidin-2-yl}-1H-indazol-1-yl)methyl]phenoxy}ethanol]
23 | 1300 | – | 210 | 31 | COc1cnccc1Nc1cc(C(C)C)nc(-c2nn(Cc3c(F)cc(OCCO)cc3F)c3ccccc23)n1 [Example 2-6-29, 2-{3,5-difluoro-4-[(3-{4-isopropyl-6-[(3-methoxypyridin-4-yl)amino]pyrimidin-2-yl}-1H-indazol-1-yl)methyl]phenoxy}ethanol]
24 | 1200 | 5.8 | 200 | – | CCOc1cc(F)c(Cn2nc(-c3nc(Nc4ccncc4OC)cc(C4CCCO4)n3)c3ccccc32)c(F)c1 (racemic) [Example 2-12-88, 2-[1-(4-ethoxy-2,6-difluorobenzyl)-1H-indazol-3-yl]-N-(3-methoxypyridin-4-yl)-6-[(2rac)-tetrahydrofuran-2-yl]pyrimidin-4-amine]
